Source: patent US20170246124A1, “TREATMENT OF LEIGH SYNDROME AND LEIGH-LIKE SYNDROME WITH TOCOTRIENOL QUINONES” (BioElectron Technology Corporation, priority 2009, published 2017)
Like-named read-outs stand apart in the source and are kept apart here.

What was measured:
[1] = Animal study of alpha-tocotrienol quinone administration, pharmacokinetics in fasted dogs; settings: dog, in vivo, po, 10 mg/kg
Experimental: (§1) The particular dosage appropriate for a specific patient is determined by dose titration. […] There is less than dose-proportionality since for an increase in doses of 2.4:6:10:20 there is only an increase in AUCs of 1.5:2.8:4.0:6.7. This lack of dose-proportionality may be due to decreased absorption since there is no change in t1/2 over dose range. Alpha-tocotrienol quinone tested in rats was safe when given acutely up to 2000 mg/kg.

[2] = rat, in vivo
Experimental: as §1
The starting dose can be estimated based on the United States Food and Drug Administration guidelines titled “Estimating the Maximum Safe Starting Dose in Initial Clinical Trials for Therapeutics in Adult Healthy Volunteers” (July 2005) as well as the International Conference on Harmonisation of Technical Requirements for Registration of Pharmaceuticals for Human Use (ICH) guidelines titled “Guidance on Non-clinical Safety Studies for the Conduct of Human Clinical Trials and Marketing Authorization for Pharmaceuticals” (July 2008). Per ICH guidelines, predicted exposures from the starting dose should not exceed 1/50th the NOAEL (No-Adverse-Observed-Effect-Level) in the more sensitive species on a mg/m^2 basis. Following a single oral dose of alpha-tocotrienol quinone, the NOAEL was established to be 500 mg/kg for the female rat, i.e. 3,000 mg/m2. This dosage would be equivalent to 81 mg/kg in an adult human. […]

[3] = system: patient with Leigh Syndrome; experiment: Treatment of a Leigh Syndrome patient (Example 3), observed function; type: in vivo, human; settings: Example 3 patient
Experimental: A patient with Leigh Syndrome was treated with alpha-tocotrienol quinone. Informed consent was obtained from the child's parents in accordance with federal regulations and institutional protocol. A mutation was identified in the SURF-1 gene of the patient.
At the start of treatment, the patient was unable to control their extremities. […] The patient also gained weight.

[4] = system: patient with Leigh Syndrome; experiment: Treatment of a Leigh Syndrome patient with SURF-1 mutations (Example 2): lactate, MRI, adverse events; type: in vivo, human; settings: Example 2 patient
Experimental: A patient with Leigh Syndrome was treated with alpha-tocotrienol quinone. Informed consent was obtained from the child's parents in accordance with federal regulations and institutional protocol. Two mutations were identified in the SURF-1 gene of the patient.
(§2) The patient's weight was approximately 10 kg. Alpha-tocotrienol quinone was administered to the patient via gastrointestinal feeding tube; the drug was mixed with sesame oil for administration. The following dosing of alpha-tocotrienol quinone was used:
The patient returned for a review of safety and efficacy evaluation, including CNS lactate/pyruvate ratios as determined by non-invasive means (MRI/MRS) and ECHO. The following efficacy parameters were evaluated: PK parameters; magnetic resonance spectroscopy of central nervous system; echocardiography and electrocardiogram; and plasma and urine analytes.
Lactic acid measurements were as follows:
Magnetic resonance imaging of the patient was performed to assess the effect of treatment. […] These findings are consistent with Leigh Syndrome encephalopathies.
Close monitoring of the patient during the study was performed, to detect any adverse events. In addition, the investigator had authority to stop the study if the safety of the subject was at risk.

[5] = Animal study of alpha-tocotrienol quinone administration, pharmacokinetics in rats; settings: rat, in vivo, 10 mg/kg
Experimental: as §1

[6] = Blood-brain barrier crossing, homogenized brains of mice dosed IP; type: in vivo; settings: C57/BL mice dosed IP at 25 mg/kg, FIG. 5
SURF-1 fibroblasts = experiment: Surfeit-1 (SURF1) cell line assay: rescue of BSO-stressed patient fibroblasts, Calcein AM viability; type: cell-based; settings: Homo sapiens, Fibroblast, BSO-stressed fibroblasts of the Example 2 patient
Experimental: Alpha-Tocotrienol quinone, its redox-silent version (the bis-Boc protected corresponding hydroquinone), and solvent controls were tested for their ability to rescue cells from SURF-1 fibroblasts of the patient diagnosed with SURF-1 described in Example 2, when the cells were stressed by addition of L-buthionine-(S,R)-sulfoximine (BSO), as described in Jauslin et al., Hum. Mol. Genet. 11(24):3055 (2002), Jauslin et al., FASEB J. 17:1972-4 (2003), and International Patent Application WO 2004/003565. EC50 concentrations of test compound and its redox-silent version were determined and compared. The following compound, 2-((6E,10E)-3-hydroxy-3,7,11,15-tetramethylhexadeca-6,10,14-trienyl)-3,5,6-trimethyl-bis(t-butyloxycarbonyl)benzene-1,4-diol, the bis-Boc protected hydroquinone form of alpha-tocotrienol quinone, was used as the “redox-silent” alpha tocotrienol quinone, or αTTQ-RS.
MEM (a medium enriched in amino acids and vitamins, catalog no. 1-31F24-I) and Medium 199 (M199, catalog no. 1-21F22-I) with Earle's Balanced Salts, without phenol red, were purchased from Bioconcept. Fetal Calf Serum was obtained from PAA Laboratories. Basic fibroblast growth factor and epidermal growth factor were purchased from PeproTech. Penicillin-streptomycin-glutamine mix, L-buthionine (S,R)-sulfoximine, and insulin from bovine pancreas were purchased from Sigma. […]

[7] = Treatment of a Leigh Syndrome patient with SURF-1 mutations (Example 2): drug levels in plasma and CSF; type: in vivo, human; settings: Example 2 patient
Experimental: as §2
Full pharmacokinetic sampling (post dose, 3 h, 6 h, 10 h, 24 h, 36 h, 48 h, and 72 h) was done after administration of the initial dose. 0.5 mL of blood were taken at each time point, for a total of four mL of blood drawn at 72 h. Bio-analysis and pharmacokinetic calculations were conducted.
The minimal effective dose of alpha-tocotrienol quinone was determined. The concentration 24 hours after dosing (C24h) was expected to be 220.5 ng/ml (0.504), while the minimal effective dose was expected to be around 150 mg. Thus, the daily dosage was escalated stepwise.
The concentration of alpha tocotrienol quinone was monitored in the patient. […] Alpha tocotrienol quinone was present at 1.3 ng/ml in CSF.

[8] = after treatment compared with pre-treatment MRI

In the case of CC(C)=CCC/C(C)=C/CC/C(C)=C/CCC(C)(O)CCC1=C(C)C(=O)C(C)=C(C)C1=O (stereo not drawn) [alpha-tocotrienol quinone, Alpha-tocotrienol quinone], the bioavailability [1] is reported as ~16%, the “dose at which safe when given acutely” value [2] is reported as “up to 2000 mg/kg” and the “NOAEL on mg/m2 basis” value ([2]; po) is reported as 3,000 mg/m2. For the same compound, the control of extremities ([3]; after 22 days of treatment, unable to control extremities at start) was “able to move their arm in the “high-five” gesture”, the motor function ([3]; after 379 days of treatment) was “able to sit upright” and the weight gained ([3]; after 379 days of treatment) was 15 pounds. The gastrointestinal function ([3]; under treatment) was “greatly improved”, the sleep ([3]; under treatment) was “improved” and the adverse events ([4]; close monitoring during the study, FIG. 7) was “No adverse events were observed”. For the same compound, the “plasma lactate level after treatment” value ([4]; 3.6 mM approximately 4 months prior to treatment, normal range 1.0 to 1.4 mM) was 1.1 mM, the “CSF lactate level after treatment” value ([4]; 46.5 mg/dL about 2 years pre-treatment) was 24.0 mg/dL and the “MRI: T2 hyperintensities of midbrain, pons, medulla and cerebellum” value [4, 8] was “interval improvement”. For the same compound, the “MRI: amount of lesions” value [4, 8] was “overall decrease”, the “reduction of CSF lactate” value ([4]; after treatment vs about 2 years pre-treatment) was 48.4% and the “reduction of plasma lactate” value ([4]; after treatment vs approximately 4 months prior) was 69.4%. The “decrease in brain lactate” value ([4]; two days prior to treatment to approximately 98 days after starting) was 20-30%, the bioavailability [5] was ~90% and the “crosses the blood-brain barrier” value [6] was “crosses the blood-brain barrier”. For the same compound, the EC50 (SURF-1 fibroblasts; FIG. 1 experiment run beside Coenzyme Q10, read-out: EC50, viability of cells with a SURF-1 mutation (FIG. 1)) was 27 nM, the EC50 (SURF-1 fibroblasts; FIG. 2 experiment run beside αTTQ-RS, read-out: EC50, viability of cells with a SURF-1 mutation (FIG. 2)) was 21 nM and the “concentration 24 hours after dosing (C24h), expected” value ([7]; expectation before dose escalation) was 220.5 ng/mL. For the same compound, the concentration at 98 day of treatment ([7]; human, cerebrospinal fluid, other: via gastrointestinal feeding tube, 98th day of treatment, FIG. 9) was 1.3 ng/mL.
